# Results published in patent US20260297080A1, “BICYCLIC COMPOUNDS AS CDK INHIBITORS” (BeOne Medicines I GmbH, priority 2022, published 2026).
# Experiments:
# [1] = molecular target: CDK1/Cyclin B1 (Homo sapiens, UniProt P06493); assay: CDK1/Cyclin B1 Biochemical Assay (TR-FRET), 0.015 mM ATP; conditions: 0.15 μM Rb (Ser780)-biotin substrate, pH7.0, 60 min preincubation, 120 min reaction, room temperature
# How it was run: (§1)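 IC50 was from a four-parameter logistic fit of the 665/620 nm TR-FRET ratio (Eu anti-pRb Ser780 mAb, streptavidin-XL665). Compound (0-10 μM) was preincubated 60 min with enzyme, then reacted 120 min at room temperature with 0.15 μM biotinylated Rb (Ser780) peptide. ATP was 0.015 mM for CDK1/Cyclin B1 and 0.060 mM for CDK2/Cyclin E1; buffer was HEPES pH7.0.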
# [2] = molecular target: CDK2/Cyclin E1 (Homo sapiens, UniProt P24941); assay: CDK2/Cyclin E1 Biochemical Assay (TR-FRET), 0.060 mM ATP; conditions: 0.15 μM Rb (Ser780)-biotin substrate, pH7.0, 60 min preincubation, 120 min reaction, room temperature
# How it was run: as §1
# Sequence of CDK1/Cyclin B1 (P06493 whole entry): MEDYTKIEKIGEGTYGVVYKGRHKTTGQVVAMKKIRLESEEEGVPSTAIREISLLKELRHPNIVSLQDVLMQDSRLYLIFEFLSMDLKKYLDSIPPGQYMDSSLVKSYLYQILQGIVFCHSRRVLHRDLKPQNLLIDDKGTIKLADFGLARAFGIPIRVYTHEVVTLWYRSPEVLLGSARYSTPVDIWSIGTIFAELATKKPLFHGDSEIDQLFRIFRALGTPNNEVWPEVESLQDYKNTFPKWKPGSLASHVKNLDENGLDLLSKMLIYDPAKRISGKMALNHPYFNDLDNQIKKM
# Sequence of CDK1/Cyclin B1 (P14635 whole entry partner): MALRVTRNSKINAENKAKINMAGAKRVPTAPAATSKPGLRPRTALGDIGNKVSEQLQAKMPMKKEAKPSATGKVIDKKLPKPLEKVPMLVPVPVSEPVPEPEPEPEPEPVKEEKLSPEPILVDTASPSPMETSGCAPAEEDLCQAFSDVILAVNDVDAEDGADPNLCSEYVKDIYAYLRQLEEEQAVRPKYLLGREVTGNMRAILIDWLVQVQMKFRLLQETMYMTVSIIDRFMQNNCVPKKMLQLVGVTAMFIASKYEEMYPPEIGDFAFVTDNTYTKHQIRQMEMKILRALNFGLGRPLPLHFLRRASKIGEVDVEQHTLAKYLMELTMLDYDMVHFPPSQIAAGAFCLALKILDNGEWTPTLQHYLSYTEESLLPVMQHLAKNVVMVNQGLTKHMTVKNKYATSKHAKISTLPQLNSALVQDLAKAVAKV
IC50 [1] [nM],IC50 [2] [nM],Structure (SMILES)
68,2.3,"CC(C)NC(=O)O[C@H]1CC[C@@H](c2cc(Nc3ccc4c(c3)CCS(=O)(=O)N4)n[nH]2)C1 (single isomer, unassigned) [Example 246b, cis-3-(3-((2,2-dioxido-3,4-dihydro-1H-benzo[c][1,2]thiazin-6-yl)amino)-1H-pyrazol-5-yl)cyclopentyl isopropylcarbamate]"
95,4.2,"CC(C)NC(=O)O[C@H]1CC[C@@H](c2cc(Nc3ccc4c(c3)S(=O)(=O)NC4C)[nH]n2)C1 (single isomer, unassigned) [Example 5c, cis-3-(5-((3-methyl-1,1-dioxido-2,3-dihydrobenzo[d]isothiazol-6-yl)amino)-1H-pyrazol-3-yl)cyclopentyl isopropylcarbamate]"
1750,85,"CC(C)NC(=O)O[C@@H]1CC[C@H](c2cc(Nc3ccc4c(c3)N(C(=O)OC(C)(C)C)CS4(=O)=O)n[nH]2)C1 (relative stereo) [Example 319, cis-tert-butyl 5-((5-(3-((isopropylcarbamoyl)oxy)cyclopentyl)-1H-pyrazol-3-yl)amino)benzo[d]thiazole-3 (2H)-carboxylate 1,1-dioxide]"
512,2.3,"CC[C@H](C)NC(=O)O[C@H]1CC[C@@H](c2cc(Nc3ccc4c(c3Cl)CNS4(=O)=O)n[nH]2)C1 (relative stereo) [Example 41, cis-3-(3-((4-chloro-1,1-dioxido-2,3-dihydrobenzo[d]isothiazol-5-yl)amino)-1H-pyrazol-5-yl)cyclopentyl((S)-sec-butyl)carbamate]"
210,5.8,"CC1(NC(=O)O[C@H]2CC[C@@H](c3cc(Nc4ccc5c(c4F)CS(=O)(=O)N5CC(F)(F)F)n[nH]3)C2)COC1 (relative stereo) [Example 409, cis-3-(3-((4-fluoro-2,2-dioxido-1-(2,2,2-trifluoroethyl)-1,3-dihydrobenzo[c]isothiazol-5-yl)amino)-1H-pyrazol-5-yl)cyclopentyl(3-methyloxetan-3-yl)carbamate]"
56,3,"CC(C)NC(=O)O[C@H]1CC[C@@H](c2cc(Nc3cc(F)c4c(c3)CS(=O)(=O)N4C3COC3)n[nH]2)C1 (relative stereo) [Example 283, cis-3-(3-((7-fluoro-1-(oxetan-3-yl)-2,2-dioxido-1,3-dihydrobenzo[c]isothiazol-5-yl)amino)-1H-pyrazol-5-yl)cyclopentyl isopropylcarbamate]"
6.1,1.4,"CC(C)NC(=O)O[C@H]1CC[C@@H](c2cc(Nc3ccc4c(c3)N(CCO)S(=O)(=O)C4)n[nH]2)C1 (relative stereo) [Example 309, cis-3-(3-((1-(2-hydroxyethyl)-2,2-dioxido-1,3-dihydrobenzo[c]isothiazol-6-yl)amino)-1H-pyrazol-5-yl)cyclopentyl isopropylcarbamate]"
76,2,"[2H]C([2H])([2H])N1c2c(F)cc(Nc3cc([C@@H]4CC[C@H](OC(=O)NC5(C)CC5)C4)[nH]n3)cc2CS1(=O)=O (single isomer, unassigned) [Example 291a, cis-3-(3-((7-fluoro-1-(methyl-d3)-2,2-dioxido-1,3-dihydrobenzo[c]isothiazol-5-yl)amino)-1H-pyrazol-5-yl)cyclopentyl(1-methylcyclopropyl)carbamate]"
166,4.7,"CC(C)CNC(=O)O[C@H]1CC[C@@H](c2cc(Nc3cc4c(cc3F)N(CCO)S(=O)(=O)C4)n[nH]2)C1 (relative stereo) [Example 298, cis-3-(3-((6-fluoro-1-(2-hydroxyethyl)-2,2-dioxido-1,3-dihydrobenzo[c]isothiazol-5-yl)amino)-1H-pyrazol-5-yl)cyclopentyl isobutylcarbamate]"
404,12,"CC(C)NC(=O)O[C@H]1CC[C@@H](c2cc(Nc3cc4c(cc3F)N(C3COC3)S(=O)(=O)C4)n[nH]2)C1 (relative stereo) [Example 301, cis-3-(3-((6-fluoro-1-(oxetan-3-yl)-2,2-dioxido-1,3-dihydrobenzo[c]isothiazol-5-yl)amino)-1H-pyrazol-5-yl)cyclopentyl isopropylcarbamate]"
36.1,0.9,"CC(C)NC(=O)O[C@H]1CC[C@@H](c2cc(Nc3ccc4c(c3)CNS4(=O)=O)n[nH]2)C1 (relative stereo) [Example 2, cis-3-(3-((1,1-dioxido-2,3-dihydrobenzo[d]isothiazol-5-yl)amino)-1H-pyrazol-5-yl)cyclopentyl isopropylcarbamate]"
503,11,"CC(C)NC(=O)O[C@H]1CC[C@@H](c2cc(Nc3ccc4c(c3F)CN(C3CCN(C)C3)S4(=O)=O)n[nH]2)C1 (relative stereo) [Example 70, cis-3-(3-((4-fluoro-2-(1-methylpyrrolidin-3-yl)-1,1-dioxido-2,3-dihydrobenzo[d]isothiazol-5-yl)amino-1H-pyrazol-5-yl)cyclopentyl isopropylcarbamate]"
28,3,"Cc1c(Nc2cc([C@@H]3CC[C@H](OC(=O)NC(C)C)C3)[nH]n2)ccc2c1CS(=O)(=O)N2 (relative stereo) [Example 240, cis-3-(3-((4-methyl-2,2-dioxido-1,3-dihydrobenzo[c]isothiazol-5-yl)amino)-1H-pyrazol-5-yl)cyclopentyl isopropylcarbamate]"
102,1.6,"COCC(C)(C)NC(=O)O[C@H]1CC[C@@H](c2cc(Nc3ccc4c(c3F)CNS4(=O)=O)n[nH]2)C1 (relative stereo) [Example 364, cis-3-(3-((4-fluoro-1,1-dioxido-2,3-dihydrobenzo[d]isothiazol-5-yl)amino)-1H-pyrazol-5-yl)cyclopentyl(1-methoxy-2-methylpropan-2-yl)carbamate]"
48,5,"CC[C@H](C)NC(=O)O[C@H]1CC[C@@H](c2cc(Nc3ccc4c(c3)CS(=O)(=O)N4C)n[nH]2)C1 (relative stereo) [Example 222, cis-3-(3-((1-methyl-2,2-dioxido-1,3-dihydrobenzo[c]isothiazol-5-yl)amino)-1H-pyrazol-5-yl)cyclopentyl((S)-sec-butyl)carbamate]"
> 10000,243,"COCCN1Cc2cc(Nc3cc([C@@H]4CC[C@H](OC(=O)NC(C)C)C4)[nH]n3)c(F)cc2S1(=O)=O (relative stereo) [Example 48, cis-3-(3-((6-fluoro-2-(2-methoxyethyl)-1,1-dioxido-2,3-dihydrobenzo[d]isothiazol-5-yl)amino-1H-pyrazol-5-yl)cyclopentyl isopropylcarbamate]"
77,7.7,"[2H]C([2H])([2H])C1c2cc(Nc3cc([C@@H]4CC[C@H](OC(=O)NC5(C)CC5)C4)[nH]n3)cc(F)c2N(C([2H])([2H])[2H])S1(=O)=O (relative stereo) [Example 287, cis-3-(3-((7-fluoro-1,3-bis(methyl-d3)-2,2-dioxido-1,3-dihydrobenzo[c]isothiazol-5-yl)amino)-1H-pyrazol-5-yl)cyclopentyl(1-methylcyclopropyl)carbamate]"
152,5.5,"CC(C)NC(=O)O[C@H]1CC[C@@H](c2cc(Nc3cc(F)c4c(c3)CS(=O)(=O)N4C3CC3)n[nH]2)C1 (relative stereo) [Example 288, cis-3-(3-((1-cyclopropyl-7-fluoro-2,2-dioxido-1,3-dihydrobenzo[c]isothiazol-5-yl)amino)-1H-pyrazol-5-yl)cyclopentyl isopropylcarbamate]"
1020,10,"CC(C)CN1Cc2c(ccc(Nc3cc([C@@H]4CC[C@H](OC(=O)NC(C)C)C4)[nH]n3)c2F)S1(=O)=O (relative stereo) [Example 101, cis-3-(3-((4-fluoro-2-isobutyl-1,1-dioxido-2,3-dihydrobenzo[d]isothiazol-5-yl)amino)-1H-pyrazol-5-yl)cyclopentyl isopropylcarbamate]"
96,2.5,"CC1(NC(=O)O[C@H]2CC[C@@H](c3cc(Nc4ccc5c(c4F)CN(CCO)S5(=O)=O)n[nH]3)C2)CC1 (single isomer, unassigned) [Example 128b, cis-3-(3-((4-fluoro-2-(2-hydroxyethyl)-1,1-dioxido-2,3-dihydrobenzo[d]isothiazol-5-yl)amino)-1H-pyrazol-5-yl)cyclopentyl(1-methylcyclopropyl)carbamate]"
183,10,"CC(C)NC(=O)O[C@H]1CC[C@@H](c2cc(Nc3ccc4c(c3)CC(=O)NS4(=O)=O)n[nH]2)C1 (relative stereo) [Example 171, cis-3-(3-((1,1-dioxido-3-oxo-3,4-dihydro-2H-benzo[e][1,2]thiazin-6-yl)amino)-1H-pyrazol-5-yl)cyclopentyl isopropylcarbamate]"
565,15,"CC(C)NC(=O)O[C@H]1CC[C@@H](c2cc(Nc3ccc4c(c3F)CN(C3CCC(=O)N(C)C3)S4(=O)=O)n[nH]2)C1 (relative stereo) [Example 83, cis-3-(3-((4-fluoro-2-(1-methyl-6-oxopiperidin-3-yl)-1,1-dioxido-2,3-dihydrobenzo[d]isothiazol-5-yl)amino)-1H-pyrazol-5-yl)cyclopentyl isopropylcarbamate]"
187,2.3,"O=C(NCCC(F)(F)F)O[C@H]1CC[C@@H](c2cc(Nc3ccc4c(c3F)CNS4(=O)=O)n[nH]2)C1 (single isomer, unassigned) [Example 154a, cis-3-(3-((4-fluoro-1,1-dioxido-2,3-dihydrobenzo[d]isothiazol-5-yl)amino)-1H-pyrazol-5-yl)cyclopentyl(3,3,3-trifluoropropyl)carbamate]"
